Test results: article PMC6099574, “Synthesis, Design, and Structure–Activity Relationship of the Pyrimidone Derivatives as Novel Selective Inhibitors of Plasmodium falciparum Dihydroorotate Dehydrogenase” (Molecules : A Journal of Synthetic Chemistry and Natural …, 2018)
Read-outs that look alike come from different tables or passages of the source.

Legend:
[1] = set-up: method as in PMID 27641613; conditions: compared with DSM 265; cited from earlier work
[2] = set-up: method as in PMID 27641613; conditions: compared with DSM 265; cited from earlier work; remark: listed apart in the source
[3] = set-up: method as in PMID 27641613; conditions: compared with DSM 265; cited from earlier work; remark: listed apart in the source
[4] = set-up: method as in PMID 24073986; conditions: cited from earlier work
3D7 cells = test system: 3D7 cells; set-up: method as in PMID 24073986; conditions: read-out: IC50 parasite growth in vitro, 3D7 cells; cited from earlier work
[5] = set-up: method as in PMID 24073986; conditions: cited from earlier work; remark: listed apart in the source
hDHODH (Met30–Arg396) [6] = target: T1, hDHODH (Met30–Arg396) (Homo sapiens, UniProt Q02127); set-up: method as in PMID 24073986; conditions: previous work; cited from earlier work
T1 construct: enzyme activity determination of PfDHODH (Phe158–Ser569) and hDHODH (Met30–Arg396); made in house

Dd2 cells = test system: Dd2 cells; set-up: method as in PMID 24073986; conditions: read-out: IC50 parasite growth in vitro, Dd2 cells; cited from earlier work
PfDHODH (Phe158–Ser569) [7] = target: T2, PfDHODH (Phe158–Ser569) (Plasmodium falciparum, UniProt Q08210); set-up: method as in PMID 24073986; conditions: previous work; read-out: IC50 against PfDHODH; cited from earlier work
T2 construct: enzyme activity determination of PfDHODH (Phe158–Ser569) and hDHODH (Met30–Arg396); made in house

hDHODH (Met30–Arg396) [8] = target: T1, hDHODH (Met30–Arg396); test: In vitro enzyme assay, hDHODH (DCIP reduction); format: biochemical; conditions: for IC50: in vitro enzyme assay
Method: (§1) Protein expression, purification, and enzyme activity determination of PfDHODH (Phe158–Ser569) and hDHODH (Met30–Arg396) were performed according to our previous work. The enzymes were diluted to a final concentration of 10 nM using the assay buffer containing 50 mM HEPES (pH 8.0), 150 mM KCl, 0.1% Triton X-100 supplemented with 100 µM UQ0, and 120 µM DCIP. The mixture was transferred into a 96-well plate and incubated with or without various amounts of inhibitors for 5 min at room temperature, and then the dihydroorotate was added to a final concentration of 500 µM to initiate the reaction. The reaction was monitored by measuring the decrease in DCIP in the absorption at 600 nm at each 30 s over a period of 6 min. Brequinar and DSM1 were measured as the positive controls for hDHODH and PfDHODH, respectively. Percent inhibition relative to no inhibitor control was calculated by (1 − Vi/V0) × 100. For the determination of the IC50 value of the inhibitor, eight or nine different concentrations were applied. Each inhibitor concentration point was tested in triplicate, and the IC50 values were calculated using the sigmoidal fitting option of the program Origin 8.0 (Originlab, Northampton, MA, US).

PfDHODH (Phe158–Ser569) [9] = target: T2, PfDHODH (Phe158–Ser569); test: In vitro enzyme assay, PfDHODH (DCIP reduction); format: biochemical; conditions: for inhibitory activity against PfDHODH (in words): qualitative statement
Method: as §1, with “Brequinar and DSM1 were measured as the positive controls for hDHODH and PfDHODH, respectively.” left out

[10] = in vitro enzyme assay, read-out: IC50 (μM) PfDHODH

T1 sequence (Q02127 29-395 limits assumed): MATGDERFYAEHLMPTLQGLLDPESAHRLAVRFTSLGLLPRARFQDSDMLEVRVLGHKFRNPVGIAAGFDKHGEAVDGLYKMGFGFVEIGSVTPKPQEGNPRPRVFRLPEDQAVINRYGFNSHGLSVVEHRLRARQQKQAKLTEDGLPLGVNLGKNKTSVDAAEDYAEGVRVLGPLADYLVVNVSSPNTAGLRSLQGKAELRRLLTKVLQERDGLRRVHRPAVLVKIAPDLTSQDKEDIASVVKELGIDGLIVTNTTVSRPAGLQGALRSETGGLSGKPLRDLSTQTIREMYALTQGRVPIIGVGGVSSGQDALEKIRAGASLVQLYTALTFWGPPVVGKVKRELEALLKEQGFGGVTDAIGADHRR
T2 sequence (Q08210 158-569): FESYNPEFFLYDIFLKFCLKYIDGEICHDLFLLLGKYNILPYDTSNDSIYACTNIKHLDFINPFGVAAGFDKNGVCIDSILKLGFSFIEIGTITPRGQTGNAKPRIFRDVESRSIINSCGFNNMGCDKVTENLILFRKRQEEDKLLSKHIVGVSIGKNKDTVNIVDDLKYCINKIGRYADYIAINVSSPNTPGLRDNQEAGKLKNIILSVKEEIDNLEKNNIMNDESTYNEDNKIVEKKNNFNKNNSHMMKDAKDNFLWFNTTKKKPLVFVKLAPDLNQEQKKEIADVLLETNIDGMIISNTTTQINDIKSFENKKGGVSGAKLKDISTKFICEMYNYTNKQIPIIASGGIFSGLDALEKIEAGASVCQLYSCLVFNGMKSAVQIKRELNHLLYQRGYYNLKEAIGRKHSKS

In the case of `Cc1cc(Nc2ccc(C(F)(F)F)nc2)n2nc(C(C)(F)F)nc2n1` [Compound 9], the “plasma exposure after oral dosing (in words)” value [1] is listed as “increased plasma exposure after oral dosing”, the “intrinsic clearance (in words)” value [2] is listed as “lower intrinsic clearance” and the “solubility (in words)” value [3] is listed as “improved solubility”.

For `CCOC(=O)C1=C(Nc2ccc3ccccc3c2)OCC1=O` [Compound 10], the “metabolic properties (in words)” value [4] is given as “poor metabolic properties”, the IC50 (3D7 cells) is given as 0.015 µM and the “efficacy in vivo (in words)” value [5] is given as “less effective in vivo”. For the same molecule, the “species selectivity over hDHODH” value (hDHODH (Met30–Arg396) [6]) was > 14,000 fold, the IC50 (Dd2 cells) was 0.018 µM and the IC50 (PfDHODH (Phe158–Ser569) [7]) was 0.006 µM.

`O=C(O)C1=C(Nc2ccc3ccccc3c2)OCC1=O` [Compound 11, 2-(Naphthalen-2-ylamino)-4-oxo-4,5-dihydrofuran-3-carboxylic acid] gave an IC50 (hDHODH (Met30–Arg396) [8]) greater than 10 µM, a melting point of 164.4 to 165 °C and an IC50 (PfDHODH (Phe158–Ser569) [9]; [10]) of 0.106 ± 0.009 µM. For the same molecule, the “inhibitory activity against PfDHODH (in words)” value (“inhibitory activity” for short) (PfDHODH (Phe158–Ser569) [9]) was “lower inhibitory activity in comparison with 10”.

With `CCNC(=O)C1=C(Nc2ccccc2)OCC1=O` [Compound 12, N-Ethyl-4-oxo-2-(phenylamino)-4,5-dihydrofuran-3-carboxamide] the IC50 (hDHODH (Met30–Arg396) [8]) was 2.4 ± 0.1 µM, the melting point was 146.9 to 147.4 °C and the IC50 (PfDHODH (Phe158–Ser569) [9]; [10]) was greater than 10 µM. The “inhibitory activity” value (PfDHODH (Phe158–Ser569) [9]) was “inactive”.

For `CCNC(=O)C1=C(Nc2ccc3c(c2)CCC3)OCC1=O` [Compound 13, 2-[(2,3-Dihydro-1H-inden-5-yl)amino]-N-ethyl-4-oxo-4,5-dihydrofuran-3-carboxamide], the IC50 (hDHODH (Met30–Arg396) [8]) was greater than 10 µM, the melting point was 127.7 to 128.2 °C and the IC50 (PfDHODH (Phe158–Ser569) [9]; [10]) was greater than 10 µM.

Work on `CNC(=O)C1=C(Nc2ccc3ccccc3c2)OCC1=O` [Compound 14, N-Methyl-2-(naphthalen-2-ylamino)-4-oxo-4,5-dihydrofuran-3-carboxamide] yielded an IC50 (hDHODH (Met30–Arg396) [8]) greater than 10 µM, a melting point of 126.3 to 126.9 °C and an IC50 (PfDHODH (Phe158–Ser569) [9]; [10]) of 9 ± 1 µM.

Molecule `CCNC(=O)C1=C(Nc2ccc3ccccc3c2)OCC1=O` [Compound 15, N-Ethyl-2-(naphthalen-2-ylamino)-4-oxo-4,5-dihydrofuran-3-carboxamide] has an IC50 (hDHODH (Met30–Arg396) [8]) greater than 10 µM, a melting point of 121.8 to 123 °C and an IC50 (PfDHODH (Phe158–Ser569) [9]; [10]) of 4.8 ± 0.4 µM.

For `CCCNC(=O)C1=C(Nc2ccc3ccccc3c2)OCC1=O` [Compound 16, 2-(Naphthalen-2-ylamino)-4-oxo-N-propyl-4,5-dihydrofuran-3-carboxamide], the IC50 (hDHODH (Met30–Arg396) [8]) was greater than 10 µM, the IC50 (PfDHODH (Phe158–Ser569) [9]; [10]) was greater than 10 µM and the “inhibitory activity” value (PfDHODH (Phe158–Ser569) [9]) was “lost their activities”.

In the case of `O=C1COC(Nc2ccc3ccccc3c2)=C1C(=O)NC1CC1` [Compound 18, N-Cyclopropyl-2-(naphthalen-2-ylamino)-4-oxo-4,5-dihydrofuran-3-carboxamide], the IC50 (hDHODH (Met30–Arg396) [8]) is reported as greater than 10 µM, the melting point is reported as 140.8 to 141.6 °C and the IC50 (PfDHODH (Phe158–Ser569) [9]; [10]) is reported as 6 ± 1 µM.

In the case of `O=C1COC(Nc2ccc3ccccc3c2)=C1C(=O)NCC1CC1` [Compound 19, N-(Cyclopropylmethyl)-2-(naphthalen-2-ylamino)-4-oxo-4,5-dihydrofuran-3-carboxamide], the IC50 (hDHODH (Met30–Arg396) [8]) is reported as greater than 10 µM, the melting point is reported as 164.8 to 165.3 °C and the IC50 (PfDHODH (Phe158–Ser569) [9]; [10]) is reported as greater than 10 µM. For the same molecule, the “inhibitory activity” value (PfDHODH (Phe158–Ser569) [9]) was “lost the inhibitory activity”.

`NNC(=O)C1=C(Nc2ccc3ccccc3c2)OCC1=O` [Compound 20, 2-(Naphthalen-2-ylamino)-4-oxo-4,5-dihydrofuran-3-carbohydrazide] gave an IC50 (hDHODH (Met30–Arg396) [8]) greater than 10 µM, a melting point of 167.3 to 167.9 °C and an IC50 (PfDHODH (Phe158–Ser569) [9]; [10]) of 0.07 ± 0.01 µM.

In the case of `CCN1CN(c2ccc3c(c2)CCC3)C2=C(C(=O)CO2)C1=O` [Compound 21, 1-(2,3-Dihydro-1H-inden-5-yl)-3-ethyl-2,3-dihydrofuro[2,3-d]pyrimidine-4,5(1H,6H)-dione], the IC50 (hDHODH (Met30–Arg396) [8]) is reported as greater than 10 µM, the melting point is reported as 128.6 to 129.4 °C and the IC50 (PfDHODH (Phe158–Ser569) [9]; [10]) is reported as greater than 10 µM.

`CN1CN(c2ccc3ccccc3c2)C2=C(C(=O)CO2)C1=O` [Compound 22, 3-Methyl-1-(naphthalen-2-yl)-2,3-dihydrofuro[2,3-d]pyrimidine-4,5(1H,6H)-dione] gave an IC50 (hDHODH (Met30–Arg396) [8]) greater than 10 µM, a melting point of 127.9 to 128.5 °C and an IC50 (PfDHODH (Phe158–Ser569) [9]; [10]) of 8 ± 1 µM.

`CCN1CN(c2ccc3ccccc3c2)C2=C(C(=O)CO2)C1=O` [Compound 23, 3-Ethyl-1-(naphthalen-2-yl)-2,3-dihydrofuro[2,3-d]pyrimidine-4,5(1H,6H)-dione] gave an IC50 (hDHODH (Met30–Arg396) [8]) greater than 10 µM, a melting point of 128.3 to 129 °C and an IC50 (PfDHODH (Phe158–Ser569) [9]; [10]) of 4 ± 1 µM.

For `CCCN1CN(c2ccc3ccccc3c2)C2=C(C(=O)CO2)C1=O` [Compound 24, 1-(Naphthalen-2-yl)-3-propyl-2,3-dihydrofuro[2,3-d]pyrimidine-4,5(1H,6H)-dione], the IC50 (hDHODH (Met30–Arg396) [8]) was greater than 10 µM, the melting point was 128.6 to 129.7 °C and the IC50 (PfDHODH (Phe158–Ser569) [9]; [10]) was 12 ± 6 µM.

For `O=C1COC2=C1C(=O)N(C1CC1)CN2c1ccc2ccccc2c1` [Compound 25, 3-Cyclopropyl-1-(naphthalen-2-yl)-2,3-dihydrofuro[2,3-d]pyrimidine-4,5(1H,6H)-dione], the IC50 (hDHODH (Met30–Arg396) [8]) was greater than 10 µM, the melting point was 128.8 to 129.5 °C and the IC50 (PfDHODH (Phe158–Ser569) [9]) was 5 ± 1 µM.

In the case of `NN1CN(c2ccc3ccccc3c2)C2=C(C(=O)CO2)C1=O` [Compound 26, 3-Amino-1-(naphthalen-2-yl)-2,3-dihydrofuro[2,3-d]pyrimidine-4,5(1H,6H)-dione], the “species selectivity over hDHODH” value (hDHODH (Met30–Arg396) [8]; PfDHODH versus hDHODH) is reported as greater than 400 fold, the IC50 (hDHODH (Met30–Arg396) [8]) is reported as greater than 10 µM and the melting point is reported as 168.4 to 169.2 °C. The “fold more active against PfDHODH than compound 20” value (PfDHODH (Phe158–Ser569) [9]; compared with compound 20) was 3 fold and the IC50 (PfDHODH (Phe158–Ser569) [9]; [10]) was 0.023 ± 0.001 µM.
